# Assay results as given in US12364709B2, “Bioavailable poly amines” (AMINEX THERAPEUTICS, INC., priority 2016, dated 2025).
# Like-named read-outs stand apart in the source and are kept apart here.
# Assay: 28-day repeat-dose toxicity study, toxicokinetics of AMXT 1501 dicaprate
# Format: in vivo, beagle dogs
# Settings: both sexes, beagle, dog, plasma, po
# Method: AMXT 1501 PK parameters were calculated for all AMXT 1501 dicaprate-dosed animals for the first dose (Day 1) and last dose (Day 28).
structure (smiles),measurement,setting,value
CCCCCCCCCCCCCCCC(=O)NCCCC[C@@H](N)C(=O)NCCCNCCCCNCCCN [AMXT 1501 dicaprate],AUC(0-t),"16 mg/kg/day, 16 mg/kg/day PO, DFMO 0, Day 28, M+F combined, read-out: AUC0-t Median",8120 ng·h/mL
same,AUC(0-inf),"16 mg/kg/day, 16 mg/kg/day PO, DFMO 0, Day 28, M+F combined, read-out: AUC0-∞ Mean",8070 ng·h/mL
same,AUC(0-inf),"16 mg/kg/day, 16 mg/kg/day PO, DFMO 0, Day 28, M+F combined, read-out: AUC0-∞ Median",8280 ng·h/mL
same,Cmax,"16 mg/kg/day, 16 mg/kg/day PO, DFMO 0, Day 28, M+F combined, read-out: Cmax Mean",286 ng/mL
same,Cmax,"16 mg/kg/day, 16 mg/kg/day PO, DFMO 0, Day 28, M+F combined, read-out: Cmax Median",309 ng/mL
same,Tmax,"16 mg/kg/day, 16 mg/kg/day PO, DFMO 0, Day 28, M+F combined, read-out: Tmax Mean",5.6 h
same,Tmax,"16 mg/kg/day, 16 mg/kg/day PO, DFMO 0, Day 28, M+F combined, read-out: Tmax Median",6 h
same,half-life,"16 mg/kg/day, 16 mg/kg/day PO, DFMO 0, Day 28, M+F combined, read-out: t1/2 Mean (converted)",25.4 h
same,half-life,"16 mg/kg/day, 16 mg/kg/day PO, DFMO 0, Day 28, M+F combined, read-out: t1/2 Median (converted)",27.8 h
same,AUC(0-t),"16 mg/kg/day, 16 mg/kg/day PO, DFMO 50 mg/kg/day, Day 28, M+F combined, read-out: AUC0-24 hr Mean",4390 ng·h/mL
same,AUC(0-t),"16 mg/kg/day, 16 mg/kg/day PO, DFMO 50 mg/kg/day, Day 28, M+F combined, read-out: AUC0-24 hr Median",3340 ng·h/mL
same,AUC(0-t),"16 mg/kg/day, 16 mg/kg/day PO, DFMO 50 mg/kg/day, Day 28, M+F combined, read-out: AUC0-t Mean",9440 ng·h/mL
same,AUC(0-t),"16 mg/kg/day, 16 mg/kg/day PO, DFMO 50 mg/kg/day, Day 28, M+F combined, read-out: AUC0-t Median",6010 ng·h/mL
same,AUC(0-inf),"16 mg/kg/day, 16 mg/kg/day PO, DFMO 50 mg/kg/day, Day 28, M+F combined, read-out: AUC0-∞ Mean",9590 ng·h/mL
same,AUC(0-inf),"16 mg/kg/day, 16 mg/kg/day PO, DFMO 50 mg/kg/day, Day 28, M+F combined, read-out: AUC0-∞ Median",6080 ng·h/mL
same,Cmax,"16 mg/kg/day, 16 mg/kg/day PO, DFMO 50 mg/kg/day, Day 28, M+F combined, read-out: Cmax Mean",262 ng/mL
same,Cmax,"16 mg/kg/day, 16 mg/kg/day PO, DFMO 50 mg/kg/day, Day 28, M+F combined, read-out: Cmax Median",213 ng/mL
same,Tmax,"16 mg/kg/day, 16 mg/kg/day PO, DFMO 50 mg/kg/day, Day 28, M+F combined, read-out: Tmax Mean",6.3 h
same,Tmax,"16 mg/kg/day, 16 mg/kg/day PO, DFMO 50 mg/kg/day, Day 28, M+F combined, read-out: Tmax Median",6 h
same,half-life,"16 mg/kg/day, 16 mg/kg/day PO, DFMO 50 mg/kg/day, Day 28, M+F combined, read-out: t1/2 Mean (converted)",52.8 h
same,half-life,"16 mg/kg/day, 16 mg/kg/day PO, DFMO 50 mg/kg/day, Day 28, M+F combined, read-out: t1/2 Median (converted)",57.8 h
same,AUC(0-t),"16 mg/kg/day, 16 mg/kg/day PO, DFMO 200 mg/kg/day, Day 1, M+F combined, read-out: AUC0-24 hr Mean",2310 ng·h/mL
same,AUC(0-t),"16 mg/kg/day, 16 mg/kg/day PO, DFMO 200 mg/kg/day, Day 1, M+F combined, read-out: AUC0-24 hr Median",2470 ng·h/mL
same,Cmax,"16 mg/kg/day, 16 mg/kg/day PO, DFMO 200 mg/kg/day, Day 1, M+F combined, read-out: Cmax Mean",152 ng/mL
same,Cmax,"16 mg/kg/day, 16 mg/kg/day PO, DFMO 200 mg/kg/day, Day 1, M+F combined, read-out: Cmax Median",171 ng/mL
same,Tmax,"16 mg/kg/day, 16 mg/kg/day PO, DFMO 200 mg/kg/day, Day 1, M+F combined, read-out: Tmax Mean",8.4 h
same,Tmax,"16 mg/kg/day, 16 mg/kg/day PO, DFMO 200 mg/kg/day, Day 1, M+F combined, read-out: Tmax Median",6 h
same,AUC(0-t),"32 mg/kg/day, 32 mg/kg/day PO, DFMO 0, Day 1, M+F combined, read-out: AUC0-24 hr Mean",3590 ng·h/mL
same,AUC(0-t),"32 mg/kg/day, 32 mg/kg/day PO, DFMO 0, Day 1, M+F combined, read-out: AUC0-24 hr Median",3640 ng·h/mL
same,Cmax,"32 mg/kg/day, 32 mg/kg/day PO, DFMO 0, Day 1, M+F combined, read-out: Cmax Mean",214 ng/mL
same,Cmax,"32 mg/kg/day, 32 mg/kg/day PO, DFMO 0, Day 1, M+F combined, read-out: Cmax Median",224 ng/mL
same,Tmax,"32 mg/kg/day, 32 mg/kg/day PO, DFMO 0, Day 1, M+F combined, read-out: Tmax Mean",8.6 h
same,Tmax,"32 mg/kg/day, 32 mg/kg/day PO, DFMO 0, Day 1, M+F combined, read-out: Tmax Median",9 h
same,AUC(0-t),"32 mg/kg/day, 32 mg/kg/day PO, DFMO 0, Day 28, M+F combined, read-out: AUC0-24 hr Mean",9410 ng·h/mL
same,AUC(0-t),"32 mg/kg/day, 32 mg/kg/day PO, DFMO 0, Day 28, M+F combined, read-out: AUC0-24 hr Median",8760 ng·h/mL
same,AUC(0-t),"32 mg/kg/day, 32 mg/kg/day PO, DFMO 0, Day 28, M+F combined, read-out: AUC0-t Mean",24700 ng·h/mL
same,AUC(0-t),"32 mg/kg/day, 32 mg/kg/day PO, DFMO 0, Day 28, M+F combined, read-out: AUC0-t Median",24300 ng·h/mL
same,AUC(0-inf),"32 mg/kg/day, 32 mg/kg/day PO, DFMO 0, Day 28, M+F combined, read-out: AUC0-∞ Mean",24800 ng·h/mL
same,AUC(0-inf),"32 mg/kg/day, 32 mg/kg/day PO, DFMO 0, Day 28, M+F combined, read-out: AUC0-∞ Median",24400 ng·h/mL
same,Cmax,"32 mg/kg/day, 32 mg/kg/day PO, DFMO 0, Day 28, M+F combined, read-out: Cmax Mean",620 ng/mL
same,Cmax,"32 mg/kg/day, 32 mg/kg/day PO, DFMO 0, Day 28, M+F combined, read-out: Cmax Median",620 ng/mL
same,Tmax,"32 mg/kg/day, 32 mg/kg/day PO, DFMO 0, Day 28, M+F combined, read-out: Tmax Mean",4.3 h
same,Tmax,"32 mg/kg/day, 32 mg/kg/day PO, DFMO 0, Day 28, M+F combined, read-out: Tmax Median",4 h
same,half-life,"32 mg/kg/day, 32 mg/kg/day PO, DFMO 0, Day 28, M+F combined, read-out: t1/2 Mean (converted)",48.7 h
same,half-life,"32 mg/kg/day, 32 mg/kg/day PO, DFMO 0, Day 28, M+F combined, read-out: t1/2 Median (converted)",53.2 h
